The values that follow come from patent US10729749B2, “Neurodegenerative disorders” (priority 2014, dated 2020).

Ends that are not written are not given here.

One series addresses α7 nicotinic-receptor (Homo sapiens, UniProt P36544). As to conditions: cited from earlier work.
Series [1] concerns PC12 cells. Description: Acetylcholinesterase activity assay (AChE release from PC12 cells, Ellman reagent). In kind it is cell-based. To be noted: % AChE release compared to untreated control. How it is done: AChE activity was measured using the Ellman reagent that measures the presence of thiol groups as a result of AChE activity. Cells were plated the day before the experiment as for the cell viability assay. […] The Ellman reagent was prepared as a mixture of the 3 solutions in a ratio 33(A):3(B):4(C). Absorbance measurements were taken at regular intervals (3, 10, 30 and 60 mins) across experiments at 405 nm.

Series [2] can be described thus: Cell viability assay (Cell Counting Kit-8).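 Note: PC12 cells in 96-well plates, WST-8 turned into formazan by cellular dehydrogenases, absorbance read at 450 nm after 2 h with the reagent, signal proportional to living cell number.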 In kind it is cell-based. As to conditions: % PC12 cell viability compared to untreated control. For orientation: Formazan colour is commonly taken as a measure of viable cells.
Description: (§1) A Cell Counting Kit-8 (CCK-8) was used as an improvement of the SRB technique used before. By utilizing the highly water-soluble tetrazolium salt WST-8, CCK-8 produces a water-soluble formazan dye upon reduction in the presence of an electron carrier. WST-8 is reduced by dehydrogenases in cells to give a yellow colored product (formazan), which is soluble in the tissue culture medium. The amount of the formazan dye generated by the activity of dehydrogenases in cells is directly proportional to the number of living cells. PC12 cells are plated in 200 μl of complete growth medium the day before the experiment in 96 well plates. […] Subsequently, 100 μl of growth medium is removed and 10 μl of CCK-8 (Cell Counting Kit-8) solution is added. The plate is incubated for 2 hours in the incubator and then placed in the absorbance plate reader. The absorbance must be measured at 450 nm.
The test system of series [3] is PC12 cells. Description: Calcium fluorometry (Fluo-8, acetylcholine-induced calcium influx). In kind it is cell-based. Set-up: Calcium: scale not given here. To be noted: for Calcium: calcium influx value, control based on acetylcholine alone. The text has this:
A final criterion used to determine active peptides is the amount of calcium influx into PC12 cells caused by the peptide. The calcium influx value can be calculated as described in the methods section. The calcium value corresponds to the result from the experiment when applying T30 or Aβ alone or in conjunction with the small peptides. The control value for these experiments is based on the calcium influx induced by acetylcholine alone. Preferably, the peptide, derivative or analogue thereof has a calcium influx value of less than 120, and more preferably a value of 97-120.
PC12 cells are plated in 200 μl of complete growth medium the day before the experiment in 96 well plates. On the day of the experiment, the Fluo-8 solution (Abcam) is prepared (as per provider protocol). Subsequently, 100 μl of growth medium is removed and 100 μl of Fluo-8 solution is added. Treatments with T30 or Aβ in conjunction with NBP-14 or small peptides are added and incubated for 30 minutes in the incubator and 30 minutes room temperature.
After 1 hour, the plate is placed in the fluorescence plate reader (Fluostar). Before reading the fluorescence, acetylcholine (ACh) 100 μM is prepared and placed in the Fluostar injector. For each well, the reading will be formed by a basal fluorescence followed by acetylcholine injection that will induce an increase of calcium via nicotinic receptors. The effects of the peptides are then evaluated.

The subject of series [4] is PC12 cells. Description: Value coefficient (AChE release vs PC12 cell viability) and filter selection. In kind it is cell-based. To be noted: for Value AChE/Viability: 1.0 to 1.1 = protective, control = 1.
Description: AChE release vs PC12 cell viability (for which there is a significant negative correlation); • 2. In silico binding to the allosteric site of the α7 nicotinic-receptor; • 3. Calcium influx into PC12 cells; and • 4. Peptide size.
In a further series the test system is basal forebrain. Description: VSDI of evoked responses in basal forebrain brain slices. More on the design: species or system rat. To be noted: T30 2 μM & peptide 4 μM in perfusate; 30V electrical stimulation. How it is done:
Coronal rat brain slices were prepared according to the procedure described in (Badin et al., 2013) but this time containing basal forebrain (+0.70 and −0.26 millimetres (mm) from bregma (Paxinos and Watson, 1998). Optical imaging using voltage-sensitive dyes was then performed as previously described (Badin et al., 2013, Neuropharmacology. 73C:10-18).
VSDI data were recorded in 4×4 mm 2-dimensional images, equivalent to 100×100 pixels—each pixel being 40×40 micrometres (μm), from which critical data were extracted. VSDI data was not gathered throughout the experimental run, but in fact was recorded in discrete periods of time 15 minutes in length. The inter-stimulus interval (ISI) between stimulations was 28 seconds and therefore, every recording epoch consisted of 32 successive stimulations. The data from all 32 stimulations were then averaged into a single file for each experimental condition and analysed using a VSDI data analysis toolbox specially made for MatLab (Bourgeois et al., 2014, PLoS One. 9:e108686). […] In order to quantify VSDI data however, the area under the curve was calculated (summed fluorescence fractional change, FIG. 11-22) between the moment of stimulation (t=0) and 280 ms after that; this method of quantification takes into account all the components of the immediate and longer-latency response. […]

Series [5] deals with PC12 cells. Description: Cell viability assay (Cell Counting Kit-8).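 Note: PC12 cells in 96-well plates, WST-8 turned into formazan by cellular dehydrogenases, absorbance read at 450 nm after 2 h with the reagent, signal proportional to living cell number.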 As to conditions: toxic peptide alone; compared to untreated control. In kind it is cell-based.
Description: as §1
For a further series, the system named is cells. To be noted: inventors' previous work; cited from earlier work.
The test system of another series is rat brain slices. As to conditions: inventors' previous work, cited from earlier work.
The mark [6] stands for this setting: T30 5 μM + small peptide 0.5 μM.
Setting [7] is: filters: value coefficient, in silico binding, calcium influx, peptide size.

Sequence of α7 nicotinic-receptor (P36544 23-502): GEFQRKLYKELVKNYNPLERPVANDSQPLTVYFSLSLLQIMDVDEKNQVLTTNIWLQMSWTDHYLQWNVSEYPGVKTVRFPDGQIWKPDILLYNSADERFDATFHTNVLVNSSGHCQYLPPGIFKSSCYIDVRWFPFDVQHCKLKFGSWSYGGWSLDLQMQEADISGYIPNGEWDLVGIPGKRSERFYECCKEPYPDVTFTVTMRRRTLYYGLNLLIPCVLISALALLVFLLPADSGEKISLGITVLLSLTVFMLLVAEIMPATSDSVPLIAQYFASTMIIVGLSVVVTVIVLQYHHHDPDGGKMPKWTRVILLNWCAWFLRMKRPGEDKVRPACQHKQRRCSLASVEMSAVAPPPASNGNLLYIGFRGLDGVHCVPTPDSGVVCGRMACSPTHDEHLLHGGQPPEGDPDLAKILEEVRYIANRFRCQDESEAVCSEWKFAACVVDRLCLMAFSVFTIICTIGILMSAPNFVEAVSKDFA

Turning to `COc1ccc2c3c1O[C@H]1C[C@@H](O)C=C[C@@]31CCN(C)C2` [galanthamine], the “affinity for the α7 nicotinic-receptor” value on α7 nicotinic-receptor is 10 µM.
As for “AEFHRWSSYMVHWK (listed as Homo sapiens) [T14, linear 14 amino acid peptide from the C-terminus of AChE]”, the “affinity for the α7 nicotinic-receptor” value with α7 nicotinic-receptor was 0.005 µM.
KAEFHR [NBP-603, KAEFHR]: in the series on PC12 cells [1] (setting [6]), the AChE is listed as 96.06%. In series [2] (setting [6]), the viability – broadly, a read-out of living cells in per cent, often relative to untreated cells – worked out at 94.8%. Also, the Calcium in the series with PC12 cells [3] (T30 + small peptide) is 119.86. Further, in the series on PC12 cells [3] (dose-dependent experiments, FIGS. 8 and 9), the “dose-dependent effect on calcium potentiation against T30” value is on record as “protect against T30 effects”. Further, in the series on PC12 cells [4] (setting [6]), the “Value AChE/Viability” value is 1.01. For the same compound, the “neuroprotective agent against T30 when all four filters are taken into consideration” value with PC12 cells [4] (setting [7]) is recorded as “neuroprotective agents against T30”. Also, the “reversal of T30-induced changes in evoked responses” value with basal forebrain is given as “some significant effect in reversing the changes induced by T30”.
As for “KAEFHRWSSYMVHWKNQFDHYSKQDRCSDL [T30, reference compound]”, in the series on PC12 cells [5], the “% PC12 cell viability” value turned out to be 74.309%. The value coefficient x in the series on PC12 cells [4] (toxic peptide alone, x>1.1 means toxicity) is 2.28.
For the compound “NBP14: cyclic peptide based on T14 sequence AEFHRWSSYMVHWK, cyclated via the terminal Alanine and Lysine residues (head-to-tail cyclised; listed as Homo sapiens)”, the “reversal of T30-induced changes in evoked responses” value in the series on basal forebrain is given as “significantly reverse any kind of change induced by T30”. The “action at the α7 nicotinic-receptor” value in the series with α7 nicotinic-receptor (inventors' previous work) is “true antagonist of the α7 nicotinic-receptor”. In the series on cells, the “compensatory AChE release” value was “blocks compensatory AChE release induced by the toxicity of linear T14 and T30”; the “protection of cells from toxicity” value was “protect cells from linear T14, T30 and β-amyloid toxicity”. Moreover, the “effect on Ca2+ concentrations” value with rat brain slices (given alone) is “no significant effects on Ca^2+ concentrations in rat brain slices”. For the same compound, the “effect on β-amyloid action on Ca2+ concentrations” value in the series on rat brain slices is “blocks the effects of β-amyloid”.
Regarding SYMVHW [NBP-611, SYMVHW], in the series with PC12 cells [1] (Aβ 5 μM + small peptide 0.5 μM), the AChE was 88.60%. Further, in series [2] (Aβ 5 μM + small peptide 0.5 μM), the viability turned out to be 82.2%. For the same compound, the Calcium with PC12 cells [3] (Aβ + small peptide) worked out at 114.39. Moreover, the “Value AChE/Viability” value with PC12 cells [4] (Aβ 5 μM + small peptide 0.5 μM) came to 1.08. Besides, the “neuroprotective agent against Aβ when all four filters are taken into consideration” value in the series with PC12 cells [4] (setting [7]) is recorded as “agents against Aβ”.
As to SYMVHWK [NBP-711], the AChE in the series with PC12 cells [1] (Aβ 5 μM + small peptide 0.5 μM) came to 108.57%. In addition, the viability in series [2] (Aβ 5 μM + small peptide 0.5 μM) was 106%. Moreover, in the series with PC12 cells [3] (Aβ + small peptide), the Calcium is 148.17. For the same compound, the “Value AChE/Viability” value in the series on PC12 cells [4] (Aβ 5 μM + small peptide 0.5 μM) was 1.02.
Taken in the same sequence, the figures for SYMVHWKAEF [NBP-1011] were 84.13%, 81.7%, 161.87 and 1.03.
For SYMVHWKAEFHRW [NBP-1311] the same measures were 93.51%, 86.1%, 137.63 and 1.09.
In the case of VHWKAE [NBP-614], in the series with PC12 cells [1] (Aβ 5 μM + small peptide 0.5 μM), the AChE is listed as 85.05%. In addition, in series [2] (Aβ 5 μM + small peptide 0.5 μM), the viability is 77.7%. Further, the Calcium in the series on PC12 cells [3] (Aβ + small peptide) was found to be 124.34. In addition, the “Value AChE/Viability” value in the series on PC12 cells [4] (Aβ 5 μM + small peptide 0.5 μM) turned out to be 1.09.
For VHWKAEFHRWSS [NBP-1214] the same measures were 89.28%, 85.5%, 217.64 and 1.04.
Taken in the same sequence, the figures for VHWKAEFHRWSSY [NBP-1314] were 104.08%, 97.9%, 130.85 and 1.06.
WKAEFH [NBP-602]: the AChE with PC12 cells [1] (setting [6]) stood at 112.32%. For the same compound, the viability in series [2] (setting [6]) was 108%. In the series on PC12 cells [3] (T30 + small peptide), the Calcium was determined as 169.86. The “Value AChE/Viability” value with PC12 cells [4] (setting [6]) turned out to be 1.04.
For WKAEFHRWSSY [NBP-1102] the same measures were 104.31%, 104%, 89.28 and 1.
For the compound WKAEFHRWSSYMVH [NBP-1402], in the series on PC12 cells [1] (Aβ 5 μM + small peptide 0.5 μM), the AChE is 99.85%. Further, the viability in [2] (Aβ 5 μM + small peptide 0.5 μM) was found to be 91.6%. For the same compound, in the series with PC12 cells [3] (Aβ + small peptide), the Calcium is given as 127.81. Further, the “Value AChE/Viability” value in the series with PC12 cells [4] (Aβ 5 μM + small peptide 0.5 μM) is 1.09.
Consider WSSYM [NBP-509], for which the AChE with PC12 cells [1] (Aβ 5 μM + small peptide 0.5 μM) worked out at 106.20%. Also, in series [2] (Aβ 5 μM + small peptide 0.5 μM), the viability stood at 102%. Further, in the series on PC12 cells [3] (Aβ + small peptide), the Calcium was determined as 363.48. Moreover, the “Value AChE/Viability” value in the series with PC12 cells [4] (Aβ 5 μM + small peptide 0.5 μM) worked out at 1.04.
On to WSSYMVH [NBP-709], for which, in the series on PC12 cells [1] (Aβ 5 μM + small peptide 0.5 μM), the AChE is on record as 108.99%. For the same compound, the viability in series [2] (Aβ 5 μM + small peptide 0.5 μM) came out at 102%. The Calcium in the series on PC12 cells [3] (Aβ + small peptide) stood at 288.61. Moreover, in the series with PC12 cells [4] (Aβ 5 μM + small peptide 0.5 μM), the “Value AChE/Viability” value is listed as 1.07.
On to WSSYMVHWKA [NBP-1009], for which, in the series on PC12 cells [1] (Aβ 5 μM + small peptide 0.5 μM), the AChE worked out at 101.23%. In addition, the viability in series [2] (Aβ 5 μM + small peptide 0.5 μM) came to 97.5%. Further, the Calcium in the series with PC12 cells [3] (Aβ + small peptide) is 255.80. In addition, the “Value AChE/Viability” value in the series on PC12 cells [4] (Aβ 5 μM + small peptide 0.5 μM) came out at 1.04.
Regarding WSSYMVHWKAEFHR [NBP-1409], the AChE in the series with PC12 cells [1] (setting [6]) is given as 94.85%. In addition, in series [2] (setting [6]), the viability is 94.8%. Further, the Calcium in the series on PC12 cells [3] (T30 + small peptide) was 94.59. Also, the “Value AChE/Viability” value with PC12 cells [4] (setting [6]) is 1.
As to YMVHW [NBP-512], the AChE in the series with PC12 cells [1] (Aβ 5 μM + small peptide 0.5 μM) stood at 104.81%. The viability in [2] (Aβ 5 μM + small peptide 0.5 μM) turned out to be 104%. Moreover, the Calcium in the series with PC12 cells [3] (Aβ + small peptide) is given as 163.09. Further, the “Value AChE/Viability” value in the series with PC12 cells [4] (Aβ 5 μM + small peptide 0.5 μM) was 1.01.
On to YMVHWKAEFHR [NBP-1112], for which, in the series with PC12 cells [1] (Aβ 5 μM + small peptide 0.5 μM), the AChE came out at 98.77%. In [2] (Aβ 5 μM + small peptide 0.5 μM), the viability was determined as 93.4%. Also, in the series with PC12 cells [3] (Aβ + small peptide), the Calcium was 127.62. In the series on PC12 cells [4] (Aβ 5 μM + small peptide 0.5 μM), the “Value AChE/Viability” value is reported as 1.06.
Turning to YMVHWKAEFHRW [NBP-1212], in the series with PC12 cells [1] (setting [6]), the AChE was 88.29%. The viability in [2] (setting [6]) was found to be 88.3%. In the series with PC12 cells [3] (T30 + small peptide), the Calcium is given as 78. Moreover, in the series with PC12 cells [4] (setting [6]), the “Value AChE/Viability” value amounted to 1.
